Results reported in ChEMBL document CHEMBL3414490 (Eur J Med Chem, 2015).

Assays:
Prothrombin = Prothrombin (Homo sapiens, UniProt P00734); test: Inhibition of human thrombin using Ac-FVR-AMC as substrate incubated for 10 mins prior to substrate addition measured for 10 min by fluorescence assay
Rattus norvegicus [1] = test: Anticoagulant activity in Sprague-Dawley rat plasma assessed as prothrombin time at 3 mg/ml administered for 4 days; assay type: functional
Rattus norvegicus [2] = test: Anticoagulant activity in Sprague-Dawley rat plasma assessed as fibrinogen level at 3 mg/ml administered for 4 days; assay type: functional
Rattus norvegicus [3] = test: Inhibition of arterial/venous thromboembolic weight in Sprague-Dawley rat at 3 mg/ml administered for 4 days relative to control; assay type: functional
Rattus norvegicus [4] = test: Anticoagulant activity in Sprague-Dawley rat plasma assessed as activated partial […] time at 3 mg/ml administered for 4 days; assay type: functional
Rattus norvegicus [5] = test: Inhibition of thrombin-induced platelet aggregation in Sprague-Dawley rat at 3 mg/ml administered for 4 days relative to control; assay type: functional
Plasma = test: Anticoagulant activity in Sprague-Dawley rat plasma assessed as thrombin time at 3 mg/ml administered for 4 days; assay type: functional

Structure (SMILES) | IC50 (Prothrombin) [nM] | further results
Cn1c(CNc2ccc(C(=N)N)cc2F)nc2cc(C(=O)N(CCC(=O)O)c3cccc(F)c3)ccc21 | 4.54 | 
Cn1c(CNc2ccc(C(=N)N)cc2F)nc2cc(C(=O)N(CCC(=O)O)c3ccccn3)ccc21 | 3.49 | 
CCn1c(CNc2ccc(C(=N)N)cc2F)nc2cc(C(=O)N(CCC(=O)O)c3ccccn3)ccc21 | 3.39 | 
CCn1c(CNc2ccc(C(=N)N)cc2F)nc2cc(C(=O)N(CCC(=O)O)c3ccc(OC)cc3)ccc21 | 23.3 | 
CCn1c(CNc2ccc(C(=N)N)cc2F)nc2cc(C(=O)N(CCC(=O)O)c3cccc(OC)c3)ccc21 | 8.4 | 
COc1ccc(N(CCC(=O)O)C(=O)c2ccc3c(c2)nc(CNc2ccc(C(=N)N)cc2F)n3C)cc1 | 16.3 | 
CCCCCCOC(=O)/N=C(/N)c1ccc(NCc2nc3cc(C(=O)N(CCC(=O)OCC)c4ccccn4)ccc3n2C)c(F)c1 |  | PT (Rattus norvegicus [1]): 12.28 s; Activity (Rattus norvegicus [2]): 1.939 g/L; inhibition (INH) (Rattus norvegicus [3]): 73%; APTT (Rattus norvegicus [4]): 25.43 s; inhibition (INH) (Rattus norvegicus [5]): 53.8%; TT (Plasma): 137.3 s
Cn1c(CNc2ccc(C(=N)N)cc2F)nc2cc(C(=O)N(CCC(=O)O)c3ccccc3F)ccc21 | 4.93 | 
CCn1c(CNc2ccc(C(=N)N)cc2F)nc2cc(C(=O)N(CCC(=O)O)c3ccc(F)cc3)ccc21 | 4.9 | 
Cc1ccc(N(CCC(=O)O)C(=O)c2ccc3c(c2)nc(CNc2ccc(C(=N)N)cc2F)n3C)nc1 | 24 | 
COc1cccc(N(CCC(=O)O)C(=O)c2ccc3c(c2)nc(CNc2ccc(C(=N)N)cc2F)n3C)c1 | 4.84 | 
Cn1c(CNc2ccc(C(=N)N)cc2F)nc2cc(C(=O)N(CCC(=O)O)c3ccccc3)ccc21 | 5.86 | 
CCn1c(CNc2ccc(C(=N)N)cc2F)nc2cc(C(=O)N(CCC(=O)O)c3ccccc3OC)ccc21 | 21.6 | 
Cn1c(CNc2ccc(C(=N)N)cc2)nc2cc(C(=O)N(CCC(=O)O)c3ccccc3F)ccc21 | 3.23 | 
CCn1c(CNc2ccc(C(=N)N)cc2F)nc2cc(C(=O)N(CCC(=O)O)c3ccccc3C)ccc21 | 7.26 | 
Cn1c(CNc2ccc(C(=N)N)cc2F)nc2cc(C(=O)N(CCC(=O)O)c3ccc(F)cc3)ccc21 | 5.43 | 
CCn1c(CNc2ccc(C(=N)N)cc2F)nc2cc(C(=O)N(CCC(=O)O)c3cccc(F)c3)ccc21 | 4.92 | 
Cc1ccccc1N(CCC(=O)O)C(=O)c1ccc2c(c1)nc(CNc1ccc(C(=N)N)cc1F)n2C | 6.13 | 
CCCCCCOC(=O)NC(=N)c1ccc(NCc2nc3cc(C(=O)N(CCC(=O)OCC)c4ccccn4)ccc3n2C)cc1 [DABIGATRAN ETEXILATE] |  | PT (Rattus norvegicus [1]): 57.2 s; Activity (Rattus norvegicus [2]): 1.561 g/L; inhibition (INH) (Rattus norvegicus [3]): 76%; APTT (Rattus norvegicus [4]): 76.57 s; inhibition (INH) (Rattus norvegicus [5]): 92.9%; TT (Plasma): 180 s
CCn1c(CNc2ccc(C(=N)N)cc2F)nc2cc(C(=O)N(CCC(=O)O)c3ccc(Cl)cc3)ccc21 | 13.6 | 
CCCCCCOC(=O)/N=C(/N)c1ccc(NCc2nc3cc(C(=O)N(CCC(=O)OCC)c4ccccc4F)ccc3n2C)cc1 |  | PT (Rattus norvegicus [1]): 11.82 s; Activity (Rattus norvegicus [2]): 1.853 g/L; inhibition (INH) (Rattus norvegicus [3]): 37%; APTT (Rattus norvegicus [4]): 24.33 s; inhibition (INH) (Rattus norvegicus [5]): 10.4%; TT (Plasma): 180 s
CCn1c(CNc2ccc(C(=N)N)cc2F)nc2cc(C(=O)N(CCC(=O)O)c3ccccc3)ccc21 | 5.63 | 
CCn1c(CNc2ccc(C(=N)N)cc2F)nc2cc(C(=O)N(CCC(=O)O)c3ccc(C)cn3)ccc21 | 19.2 | 
CCn1c(CNc2ccc(C(=N)N)cc2F)nc2cc(C(=O)N(CCC(=O)O)c3ccccc3F)ccc21 | 3.71 | 
